# Data published in ChEMBL document CHEMBL4725321, “Study on antitumor activities of the chrysin-chromene-spirooxindole on Lewis lung carcinoma C57BL/6 mice in vivo” (Bioorg Med Chem Lett, 2020).
# The source made the active and inactive calls. The calls are words filed in the database; no cut-off is given here.
# Key:
# [1] = Toxicity in C57BL/6 mouse assessed as increase in body weight at 400 mg/kg, ip measured up to 15 days; type: organism-based; settings: in vivo, 360 h, time <=15 day
# [2] = test system: Lewis lung carcinoma; test: Antitumor activity against mouse LLC allografted in ip dosed C57BL/6 mouse assessed as reduction in bcl2 expression administered once every other day by Western blot analysis; type: functional, organism-based; settings: dose mg/kg 100-400
# [3] = test system: Lewis lung carcinoma; test: Antitumor activity against mouse LLC allografted in ip dosed C57BL/6 mouse assessed as reduction in tumor growth administered once every other day; type: functional, organism-based; settings: dose mg/kg 100-400
# [4] = test system: Mus musculus; test: Down regulation of VEGF protein expression in mouse LLC allografted C57BL/6 mouse at 200 to 400 mg/kg, ip by Western blot analysis; type: functional, organism-based; settings: dose mg/kg 200-400
# [5] = test system: Lewis lung carcinoma; test: Antitumor activity against mouse LLC allografted in C57BL/6 mouse assessed as effect on Cyt C protein expression in tumor at 100 to 200 mg/kg, ip administered once every other day by Western blot analysis; type: functional, organism-based; settings: dose mg/kg 100-200
# [6] = Antitumor activity against mouse LLC allografted in C57BL/6 mouse assessed as bax/bcl2 ratio at 400 mg/kg, ip administered once every other day by Western blot analysis; type: functional, Lewis lung carcinoma
# [7] = test system: Lewis lung carcinoma; test: Antitumor activity against mouse LLC allografted in C57BL/6 mouse assessed as Cyt C protein expression level in tumor at 400 mg/kg, ip administered once every other day by Western blot analysis relative to control; type: functional, organism-based
# [8] = Antitumor activity against mouse LLC allografted in C57BL/6 mouse assessed as bax/bcl2 ratio at 100 mg/kg, ip administered once every other day by Western blot analysis; type: functional, Lewis lung carcinoma
# [9] = Antitumor activity against mouse LLC allografted in C57BL/6 mouse assessed as tumor growth inhibition at 200 mg/kg, ip administered once every other day relative to control; type: functional; settings: Lewis lung carcinoma, read-out: TGI
# [10] = Antitumor activity against mouse LLC allografted in C57BL/6 mouse assessed as tumor weight at 200 mg/kg, ip administered once every other day (reference value: 2.74 +/- 0.29 g); type: functional, Lewis lung carcinoma
# [11] = test system: Lewis lung carcinoma; test: Antitumor activity against mouse LLC allografted in ip dosed C57BL/6 mouse assessed as increase in bax expression administered once every other day by Western blot analysis; type: functional, organism-based; settings: dose mg/kg 100-400
# [12] = target: E3 ubiquitin-protein ligase Mdm2 (Mus musculus) (UniProt P23804); test: In vivo activation of p53 in mouse LLC allografted C57BL/6 mouse assessed as reduction in MDM2 protein expression in tumor at 100 to 400 mg/kg, ip administered once every other day by Western blot analysis; type: functional, organism-based; settings: dose mg/kg 100-400
# Chain of E3 ubiquitin-protein ligase Mdm2 (Mus musculus) (P23804 whole entry): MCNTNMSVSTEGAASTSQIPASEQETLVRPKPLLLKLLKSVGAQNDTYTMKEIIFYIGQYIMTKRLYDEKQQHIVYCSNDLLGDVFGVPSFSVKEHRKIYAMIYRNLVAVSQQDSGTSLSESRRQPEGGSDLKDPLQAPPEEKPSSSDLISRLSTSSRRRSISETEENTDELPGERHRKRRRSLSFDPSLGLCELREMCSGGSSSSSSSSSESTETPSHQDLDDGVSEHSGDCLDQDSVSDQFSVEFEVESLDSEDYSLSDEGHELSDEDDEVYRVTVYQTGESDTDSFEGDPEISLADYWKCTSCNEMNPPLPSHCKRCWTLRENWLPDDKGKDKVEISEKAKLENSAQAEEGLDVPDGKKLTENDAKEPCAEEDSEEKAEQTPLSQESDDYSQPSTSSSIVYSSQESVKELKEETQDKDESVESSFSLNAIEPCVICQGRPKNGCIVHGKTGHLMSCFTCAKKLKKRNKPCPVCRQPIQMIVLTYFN
# [13] = Upregulation of p53 protein expression in […] LLC allografted C57BL/6 mouse at 400 mg/kg, ip administered once every other day by Western blot analysis relative to control; type: functional
# [14] = Antitumor activity against mouse LLC allografted in C57BL/6 mouse assessed as tumor growth inhibition at 400 mg/kg, ip administered once every other day relative to control; type: functional; settings: Lewis lung carcinoma, read-out: TGI
# [15] = test system: Mus musculus; test: Down regulation of ICAM1 protein expression in mouse LLC allografted C57BL/6 mouse at 100 mg/kg, ip by Western blot analysis; type: functional, organism-based
# [16] = Antitumor activity against mouse LLC allografted in C57BL/6 mouse assessed as bax/bcl2 ratio at 200 mg/kg, ip administered once every other day by Western blot analysis; type: functional, Lewis lung carcinoma
# [17] = test system: Lewis lung carcinoma; test: Antitumor activity against mouse LLC allografted in ip dosed C57BL/6 mouse assessed as induction of apoptosis by measuring increase in apoptotic bodies in tumor administered every other day by H and E staining based analysis; type: functional, organism-based; settings: dose mg/kg 100-400
# [18] = Antitumor activity against mouse LLC allografted in C57BL/6 mouse assessed as tumor weight at 400 mg/kg, ip administered once every other day (reference value: 2.74 +/- 0.29 g); type: functional, Lewis lung carcinoma
# [19] = test system: Lewis lung carcinoma; test: Antitumor activity against mouse LLC allografted in C57BL/6 mouse assessed as inhibition of tumor growth at 400 mg/kg, ip measured after 7 days; type: functional, organism-based; settings: time 7.0 day
# [20] = Toxicity in C57BL/6 mouse assessed as effect on body weight at 100 to 400 mg/kg, ip measured on day 3; type: organism-based; settings: in vivo, 72 h, dose 100-400 mg/kg, time 3 day
# [21] = test system: Mus musculus; test: Down regulation of MMP2 protein expression in mouse LLC allografted C57BL/6 mouse at 200 mg/kg, ip by Western blot analysis; type: functional, organism-based
# [22] = Antitumor activity against mouse LLC allografted in C57BL/6 mouse assessed as tumor growth inhibition at 100 mg/kg, ip administered once every other day relative to control; type: functional; settings: Lewis lung carcinoma, read-out: TGI
# [23] = Antitumor activity against mouse LLC allografted in C57BL/6 mouse assessed as tumor weight at 100 mg/kg, ip administered once every other day (reference value: 2.74 +/- 0.29 g); type: functional, Lewis lung carcinoma
# [24] = In vivo activation of p53 in mouse LLC allografted C57BL/6 mouse assessed as reduction in Akt protein expression in tumor at 200 mg/kg, ip administered once every other day by Western blot analysis relative to control; type: functional
# [25] = test system: Lewis lung carcinoma; test: Antitumor activity against mouse LLC allografted in ip dosed C57BL/6 mouse assessed as induction of apoptosis by measuring nuclear contraction administered every other day by H and E staining based analysis; type: functional, organism-based; settings: dose mg/kg 100-400
# [26] = test system: Mus musculus; test: Down regulation of VEGF protein expression in mouse LLC allografted C57BL/6 mouse at 100 mg/kg, ip by Western blot analysis; type: functional, organism-based
# [27] = test system: Lewis lung carcinoma; test: Antitumor activity against mouse LLC allografted in ip dosed C57BL/6 mouse assessed as induction of apoptosis by measuring increase in cell debris content in tumor administered every other day by H and E staining based analysis; type: functional, organism-based; settings: dose mg/kg 100-400
# [28] = Toxicity in C57BL/6 mouse assessed as increase in body weight at 100 to 200 mg/kg, ip measured up to 15 days; type: organism-based; settings: in vivo, 360 h, dose 100-200 mg/kg, time <=15 day
# [29] = test system: Lewis lung carcinoma; test: Antitumor activity against mouse LLC allografted in C57BL/6 mouse assessed as reduction in tumor weight at 400 mg/kg, ip administered once every other day; type: functional, organism-based
# [30] = test system: Lewis lung carcinoma; test: Antitumor activity against mouse LLC allografted in ip dosed C57BL/6 mouse assessed as reduction in tumor volume measured after 7 days; type: functional, organism-based; settings: dose mg/kg 100-400, time 7.0 day
# [31] = test system: Lewis lung carcinoma; test: Antitumor activity against mouse LLC allografted in ip dosed C57BL/6 mouse assessed as induction of apoptosis by measuring reduction in number of tumor cells administered every other day by H and E staining based analysis; type: functional, organism-based; settings: dose mg/kg 100-400
# [32] = In vivo activation of p53 in mouse LLC allografted C57BL/6 mouse assessed as reduction in 5-lox protein expression in tumor at 400 mg/kg, ip administered once every other day by Western blot analysis relative to control; type: functional
smiles,measurement,setting,value
CN1C(=O)C2(C(C#N)=C(N)Oc3cc4oc(-c5ccccc5)cc(=O)c4c(O)c32)c2cc(Br)ccc21 (configuration not stated),Activity,[1],Non-Toxic
same,Activity,[2],Dose-dependent effect
same,Activity,[3],Dose-dependent effect
same,Activity,[4],Active
same,Activity,[5],inactive
same,Ratio,[6],4.13
same,Activity,[7],Active
same,Ratio,[8],1.29
same,inhibition in vivo at 200 mg/kg,[9],20%
same,Activity,[10],2.15 g
same,Activity,[11],Dose-dependent effect
same,Activity,[12],Active
same,fold change (FC),[13],2.86
same,inhibition in vivo at 400 mg/kg,[14],56.9%
same,Activity,[15],Active
same,Ratio,[16],2.23
same,Activity,[17],Dose-dependent effect
same,Activity,[18],1.18 g
same,TGI,[19],Active
same,Activity,[20],Non-Toxic
same,Activity,[21],Active
same,inhibition in vivo at 100 mg/kg,[22],7.45%
same,Activity,[23],2.51 g
same,fold change (FC),[24],0.59
same,Activity,[25],Dose-dependent effect
same,Activity,[26],inactive
same,Activity,[27],Dose-dependent effect
same,Activity,[28],Toxic
same,Activity,[29],Active
same,Activity,[30],Dose-dependent effect
same,Activity,[31],Dose-dependent effect
same,fold change (FC),[32],0.4
